Source: US20110294855A1, “Active Compound Combinations” (BAYER CROPSCIENCE AG, priority 2009, published 2011)

Test system: Microdochium nivale
Assay: Microdochium nivale test (lawn)/protective
Assay type: in vivo
Details: lawn (100% Agrostis stolonifera), preventive application at 2000, 1000, 500 and 100 g/ha, inoculation 24 hours later, scoring after 5, 7, 14 and 21 days
Experimental: Microdochium Nivale Test (Lawn)/Protective
Lawn seed (100% Agrostis stolonifera) was sown in dishes of the dimensions 38 cm×15 cm×9 cm. 7 days after sowing, the lawn was cut prior to preventive guanidinium hydroxide application at application rates of 2000, 1000, 500 and 100 g/ha. The water application rates were 1000 l/ha (converted). 24 hours after the preventive application of the active compound, the lawn was inoculated by placing of wheat grains infected with Microdochium nivale. In each case 3 wheat grains were placed into a single dish. Scoring of the subsequent fungal growth in the lawn dishes was carried out after 5, 7, 14 and 21 days. In the dishes which had been treated with guanidinium hydroxide, an inhibition of the growth of Microdochium nivale of up to 30% (Abbott) was observed.

N=C(N)N.O [guanidinium hydroxide]
inhibition of the growth of Microdochium nivale (Abbott): up to 30%
